Measurements as given in patent publication EP0059009A1, “Pharmaceutical compositions containing quinoline derivatives as active component, a method for the preparation of such compositions, new quinoline derivatives and a method for the preparation thereof” (ACF Chemiefarma N.V., priority 1981, dated 1982).

Experiments:
guinea pigs = assay: Guinea pigs electrostimulation test (arrhythmias induced by electrostimulation of the right ventricle); type: in vivo; settings: for Percent increase in voltage (%) required for arrhythmia: given intraduodenally 30 min before stimulation, anaesthetised guinea pigs, treated vs control animals
Experimental: Arrhythmias are induced in guinea pigs by electro- stimulation of the right ventricle of the heart. The animals are anaesthesized with urethane (1.2 g/kg i.p.) and artificially respirated before a needle electrode is inserted in the right venticle of the heart. Substances are given intraduodinally 30 min. before the stimulation at a standard dose of 32 mg/kg.
The voltage needed for induction of extra systoles in control animals (n = 6) is compared with that required for induction of arrhythmias in treated animals (n = 6).
-This method is based on the work of L. Szekeres and G.J. Papp, Naunyn-Schmiedebergs Arch. Exp. Path. Pharmak., 245, 70 (1963).

malaria = settings: reported by Ainly and King, Proc. Roy. Soc. (London) B 125, 49 (1938); cited from earlier work

Structure (SMILES) | Percent increase in voltage (%) required for arrhythmia (guinea pigs; Dose 16 mg/kg) | Percent increase in voltage (%) required for arrhythmia (guinea pigs; Dose 32 mg/kg) | further results
C=CC1CNCCC1CCC(O)c1ccnc2ccc(OC)cc12 (stereo not drawn) [I, Quinicinol-l.bifumarate] | 25% | 114% | 
C=CC1CNCCC1CCC(O)c1ccnc2ccccc12 (stereo not drawn) [III] |  | 35% | 
CCC1CNCCC1CCC(O)c1ccnc2ccc(OC)cc12 (stereo not drawn) [II] | 33.9% | 176% | 
CCC1CNCCC1CC(O)Cc1ccnc2ccc(OC)cc12 (stereo not drawn) [Reference com-pound of formula 6a, reference compound] | 0% |  | anti-arrhythmic screen using the electro-stimulation test (guinea pigs; result in words, dose not given): inactive
CCC1CNCCC1CCC(O)c1ccnc2ccc(OCCC(C)C)cc12 (stereo not drawn) [VII] |  |  | Percent increase in voltage (%) required for arrhythmia (guinea pigs; Dose 23.5 mg/kg): 85%
CCC1CNCCC1CCC(O)c1ccnc2ccc(OC)cc12 (stereo not drawn) [dihydroquiniconol, dihydroquinicinol] |  |  | anti-malaria activity (malaria): did not show anti-malaria activity
